What was measured:
[1] = system: NIH-3T3 cells; assay: Transfection efficiency of lipid nanoparticles in NIH-3T3 cells; format: cell-based, murine
Procedure: The prepared cationic compounds (PL1, PL4, PL8, PL10, PL11, PL12, PL13, PL14, PL17, PL18, PL23, PL24, PL26, PL27, PL28, PL29, PL30, PL31, PL32, PL33, PL36, PL38, PL41, PL44, PL45, PL53, PL54, PL55, PL56, PL57, PL58, PL59, PL60, PL61, PL78, PL79, PL93, PL94, PL95, PL96, PL97, PL103), DOPE/DSPC, cholesterol, and DMG-PEG2000 are prepared with ethanol in a molar ratio of 35:16:46.5:2.5 to form the ethanol phase, and RNA is formulated into the aqueous phase with 50 mM citrate buffer solution at pH=4. Lipid nanoparticles are obtained by microfluidic mixing at aqueous phase:ethanol phase=3:1 (v/v), followed by dialysis purification in PBS at pH 7.4 overnight to remove ethanol.
(§1) Determination process included: preparing a 96-well plate, inoculating cells (4000 cells/well), adding 100 μL of medium, incubating at 37° C. overnight; after 24 h, adding lipid nanoparticles diluted with medium (achieving the final concentration of RNA of 10 µg/mL), incubating at 37° C. for 24 h, and then adding 50 μL of specialized luciferase substrate to each well, followed by detection using by a microplate reader (chemiluminescence).
FIG. 1A and FIG. 1B illustrate transfection of lipid nanoparticles of a DOPE group and a DSPC group in NIH3T3 cells according to some embodiments of the present disclosure. Specifically, for compounds PL1, PL4, PL6, PL8, PL10, PL11, PL12, lipid nanoparticles are prepared by DOPE and DSPC, respectively, according to an […] (Example 44). The transfection efficiency of these two groups of lipid nanoparticles in cells is first evaluated, and murine fibroblasts NIH-3T3 are selected for incubation (Example 47), and the results are shown in FIG. 1A and FIG. 1B. […] PL10, PL11, and PL12 all include two tertiary amino groups.

[2] = system: Fluc-mRNA (luciferase expression); assay: In vivo transfection efficiency of Fluc-mRNA lipid nanoparticles after intramuscular injection; parameters: species or system mice; details: for in vivo transfection (expression, FIG. 5): weight ratio lipid nanoparticle/RNA 10:1, DOPE or DSPC group; for in vivo transfection (expression, FIG. 5) / expression in vivo compared with control MC3: 3 μg Fluc-mRNA/mouse; for expression in vivo compared with control MC3 / enhancement of in vivo expression with respect to control MC3: DOPE group, weight ratio 10:1; for Intramuscular injection (PL/MC3) expression strength level: ratio of expression PL/MC3; for enhancement of in vivo expression with respect to control MC3: 3 g Fluc-mRNA/mouse
Procedure: 6 h after intramuscular injection of mRNA LNPs, mice were injected intraperitoneally with 0.2 mL […] (20 mg/mL PBS solution). After 10 min, mice were anesthetized with isoflurane in oxygen in a ventilated anesthesia room and imaged with an imaging system (IVIS, PerkinElmer), and luminescence was quantified using Living Image software (PerkinElmer).

[3] = Encapsulation efficiency of lipid nanoparticles (RiboGreen assay); format: physicochemical
Procedure: The total RNA concentration and the encapsulation efficiency were determined using a RiboGreen assay. Determination process included: taking a black 96-well plate, adding 50 μL TE buffer/Triton X to A1-A8/B1-B8, respectively (A1-A6/B1-B6 for the standard curve, A7-8/B7-8 for samples), then adding the RNA TE (Tris-EDTA) dilution solutions (2 ng/μL, 1 ng/μL, 0.5 ng/μL, 0.25 ng/μL, 0.125 ng/μL, 0 ng/μL) to the above wells A1-A6/B1-B6 as the standard curve, adding 50 μL nanoparticle dilution solution to A7-A8/B7-B8, and shaking at 37° C. for 15 min, subsequently, adding 100 μL of RiboGreen solution (diluted 400-fold with TE buffer) to each well, and shaking for 3-5 min, and detecting the fluorescence intensity of each well by a microplate reader at an excitation wavelength of 485 nm and an emission wavelength of 515 nm.

[4] = system: human hepatocellular carcinoma HepG2 cells; assay: Transfection efficiency of lipid nanoparticles in HepG2 cells; format: cell-based
Procedure: as §1
FIG. 2A and FIG. 2B illustrate encapsulation efficiency of lipid nanoparticles and cell transfection efficiency according to some embodiments of the present disclosure. FIG. 2A is the encapsulation efficiency of lipid nanoparticles in the DOPE/DSPC groups, and FIG. 2B is the transfection efficiency in HepG2 cells. PL1, PL10, and PL12 from the DOPE group, and PL11 and PL12 from the DSPC group are selected to further explore the transfection efficiency in human hepatocellular carcinoma HepG2 cells. LNP is first prepared using microfluidic approach (Example 44) and the encapsulation efficiency of LNP is measured (Example 46), and the results are shown in FIG. 2A. […] PL10 has the best effect, which is 400-fold of that of LNPs in the control group MC3. The experiment also further illustrates that PL lipids have excellent cell transfection efficiency and stable effect in different cell lines.

[5] = Particle size of lipid nanoparticles (dynamic light scattering); format: physicochemical
Procedure: The particle size of the lipid nanoparticles and the distribution (size, PDI) were determined by Malvern Zetasizer Nano ZS laser particle sizer according to dynamic light scattering (DLS). The samples were diluted 100-fold with PBS before measurement, and 1 mL was taken for measurement. The measurement was repeated three times in parallel for each sample.

[6] = system: white adipocyte; assay: White adipocyte administration, expression relative to SM102; format: cell-based; details: for White adipocyte administration (PL/SM102) expression strength level: ratio of expression PL/SM102; for expression compared with control SM102: white adipocyte administration
Excerpt: (§2) Finally, the expression levels of lipid nanoparticles with a plurality of tertiary amine groups from the embodiments of the present disclosure after intramuscular injection, white adipocyte administration, and intraperitoneal injection are summarized, and compared with lipid nanoparticles prepared from commercially available cationic lipids MC3 and SM102. […] However, the expression rates of the phosphatidylamine lipids with a plurality of tertiary amine groups from embodiments of the present disclosure are higher than that of SM102.

[7] = system: adipose tissue; assay: Intraperitoneal injection of Fluc-mRNA LNPs, expression and distribution; format: in vivo, mice; details: for Intraperitoneal injection (PL/SM102) expression strength level: ratio of expression PL/SM102; for expression compared with control SM102: intraperitoneal injection
Procedure: FIG. 10 illustrates the effect of Fluc-mRNA LNPs composed of different structural cationic lipids on the mRNA delivery efficiency after intraperitoneal administration according to some embodiments of the present disclosure. Targeting and expression of PL lipids on adipose tissue after intraperitoneal administration is also evaluated. […] That is to say, the PL lipid structure with the plurality of tertiary amino group structures may enhance the selective targeting of visceral adipocytes. […]
as §2

[8] = Summary of the strongest expressions over the administration routes; details: strongest level of the three administrations
Excerpt: as §2

[9] = system: joint cavity; assay: Intra-articular injection of Fluc-mRNA LNPs, luciferase expression in the joint cavity (IVIS); format: in vivo, ICR mice
Procedure: Images of luciferase expression in the joint cavity are detected with an IVIS imaging system at 6 h, 12 h, 24 h, 48 h, 72 h, and 96 h after intra-articular injection of 2 μg of Fluc-mRNA LNPs (PL10, PL14, and PL17, n=3).

[10] = system: most cells and tissues; details: reported; cited from earlier work

Row | Compound | transfection efficiency relative to MC3 LNP ([1]; DOPE group LNP) [fold] | in vivo transfection (expression, FIG. 5) [2] | expression in vivo compared with control MC3 [2] | Intramuscular injection (PL/MC3) expression strength level [2] | White adipocyte administration (PL/SM102) expression strength level [6] | Intraperitoneal injection (PL/SM102) expression strength level [7] | Summary of the strongest expressions [8] | enhancement of in vivo expression with respect to control MC3 [2] | other results
1 | CCCCC/C=C\C/C=C\CCCCCCCCOP(=O)(NCCCN(C)C)OCCCCCCCC/C=C\C/C=C\CCCCC [PL1] | 16 | expressed | – | – | – | – | – | – | –
2 | CCCCC/C=C\C/C=C\CCCCCCCCOP(=O)(NCCN(CCCCCCCCCCCC)CCCN(C)C)OCCCCCCCC/C=C\C/C=C\CCCCC [PL10] | 22 | expressed | better than that of control MC3 | A (A: ≥2) | C (C: ≥0.1 and <1) | D (D: <0.1) | A (A: ≥2) | – | encapsulation efficiency ([3]; DOPE LNP, microfluidic preparation): around 50%; encapsulation efficiency ([3]; weight ratio cationic PL lipid/RNA 5:1 (lowest lipid)): more than 30%; encapsulation efficiency ([3]; weight ratio cationic PL lipid/RNA 15:1 (most lipid)): about 70%; transfection efficiency relative to LNPs of control group MC3 [4]: 400 fold; particle size ([5]; weight ratio lipid nanoparticle/RNA 5:1): 200 nm; particle size ([5]; weight ratio lipid nanoparticle/RNA 15:1): 150 nm; in vivo fluorescence signal ([2]; weight ratio cationic lipid/RNA 15:1, 3 μg Fluc-mRNA): no fluorescence signal; in vivo expression relative to MC3 LNP ([2]; weight ratio lipid nanoparticles/RNA 5:1, 3 μg Fluc-mRNA): 3 fold; in vivo expression relative to MC3 LNP ([2]; weight ratio lipid nanoparticles/RNA 10:1, 3 μg Fluc-mRNA): 10 fold
3 | CCCCC/C=C\C/C=C\CCCCCCCCOP(=O)(NCCN(CCCCCCCCCCCC)CCCN(C)C)OCCCC(=O)OCCCCCCCCCCC (stereo not drawn) [PL11] | – | expressed | close to that of MC3 | C (C: ≥0.1 and <1) | C (C: ≥0.1 and <1) | – | C (C: ≥0.1 and <1) | – | transfection efficiency relative to MC3 LNP ([1]; DSPC group LNP): 3 fold
4 | CCCCC/C=C\C/C=C\CCCCCCCCOP(=O)(NCCN(CCCCCCCCCC(=O)OC(CC)CCCCC)CCCN(C)C)OCCCC(=O)OCCCCCCCCCCC (stereo not drawn) [PL12] | 7 | expressed | – | A (A: ≥2) | D (D: <0.1) | – | A (A: ≥2) | – | transfection efficiency relative to MC3 LNP ([1]; DSPC group LNP): 1.5 fold
5 | CCCCC/C=C\C/C=C\CCCCCCCCOP(=O)(NCCCN1CCN(CCCN(CCCCCCCCCCCC)CCCCCCCCCCCC)CC1)OCCCCCCCC/C=C\C/C=C\CCCCC [PL14] | – | expressed | better than that of control MC3 | A (A: ≥2) | C (C: ≥0.1 and <1) | – | A (A: ≥2) | an order of magnitude enhancement | nanoparticle particle size ([5]; optimized formulation: decreased proportion of PEG, increased volume of aqueous phase): around 200 nm; expression efficiency after intra-articular injection ([9]; 2 μg Fluc-mRNA LNPs, 6 h to 96 h): higher and more long-lasting expression efficiencies compared to both PL10 and PL17 LNPs; distribution and expression outside the joint after intra-articular injection ([9]; liver): distributed and expressed non-specifically in the liver
6 | CCCCCCCCCCCCN(CCCCCCCCCCCC)CCCN1CCN(CCCNP(=O)(OCCCCCCCCOC(=O)C(CC)CCCC)OCCCCCCCCOC(=O)C(CC)CCCC)CC1 (stereo not drawn) [PL56] | – | expressed | better than that of control MC3 | A (A: ≥2) | B (B: ≥1 and <2) | A (A: ≥2) | A (A: ≥2) | an order of magnitude enhancement | expression compared with control SM102 [6]: superior to that of the control SM102; expression compared with control SM102 [7]: superior to that of the control SM102
7 | CCCCCCCCCCCCN(CCCCCCCCCCCC)CCCN1CCN(CCCNP(=O)(OCCCCCCCCOC(=O)C(CC)CCCCCC)OCCCCCCCCOC(=O)C(CC)CCCCCC)CC1 (stereo not drawn) [PL57] | – | expressed | better than that of control MC3 | A (A: ≥2) | B (B: ≥1 and <2) | A (A: ≥2) | A (A: ≥2) | an order of magnitude enhancement | expression compared with control SM102 [6]: superior to that of the control SM102; expression compared with control SM102 [7]: superior to that of the control SM102
8 | CCCCCCCCCCCCN(CCCCCCCCCCCC)CCCN1CCN(CCCNP(=O)(OCCCCCCCCOC(=O)C(CCCCCC)CCCCCCCC)OCCCCCCCCOC(=O)C(CCCCCC)CCCCCCCC)CC1 (stereo not drawn) [PL58] | – | expressed | – | A (A: ≥2) | C (C: ≥0.1 and <1) | C (C: ≥0.1 and <1) | A (A: ≥2) | – | –
9 | CCCCCCCCCCCOC(=O)CCCCCN(CCO)CCCCCCCC(=O)OC(CCCCCCCC)CCCCCCCC [SM102] | – | – | – | – | – | – | – | – | expression compared with MC3 [10]: at least ten-fold higher than that of MC3
